In ChEMBL document CHEMBL1201862, “PubChem BioAssay data set” (2004):
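Exposure lasted 48 hours, with cells grown in 96-well plates and compounds tested at five concentrations. GI50 is the concentration that inhibits growth by half.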 Calls of active or inactive are those of the source. Rule as the data show it: active = GI50 up to about 1.1 µM and inactive = higher.

Experiments:
Test in all cases: NCI-60 cell line screen, 48 h
[1] = test system: PC-3
[2] = test system: SF-268
[3] = test system: SK-MEL-2
[4] = test system: HCT-116
[5] = test system: DU-145
[6] = test system: SK-MEL-5
[7] = test system: SN12C
[8] = test system: UO-31
[9] = test system: NCI-H522
[10] = test system: SNB-75
[11] = test system: Hs-578T
[12] = test system: BT-549
[13] = test system: UACC-257
[14] = test system: K562
[15] = test system: KM12
[16] = test system: HT-29
[17] = test system: A498
[18] = test system: NCI-H226
[19] = test system: CAKI-1
[20] = test system: OVCAR-8

In the case of `O=C1CCCCC/C1=C\c1ccc(F)cc1`, the GI50 [1] is reported as > 100 µM (inactive), the GI50 [2] is reported as > 100 µM (inactive) and the GI50 [3] is reported as > 100 µM (inactive). The GI50 [4] was 89.3 µM (inactive), the GI50 [5] was > 100 µM (inactive) and the GI50 [6] was 44.8 µM (inactive). The GI50 [7] was > 100 µM (inactive), the GI50 [8] was 42.4 µM (inactive) and the GI50 [9] was 51.5 µM (inactive). For the same compound, the GI50 [10] was > 100 µM (inactive), the GI50 [11] was 86.1 µM (inactive) and the GI50 [12] was 99.1 µM (inactive). The GI50 [13] was 52.2 µM (inactive), the GI50 [14] was > 100 µM (inactive) and the GI50 [15] was > 100 µM (inactive). The GI50 [16] was > 100 µM (inactive), the GI50 [17] was > 100 µM (inactive) and the GI50 [18] was > 100 µM (inactive). For the same compound, the GI50 [19] was > 100 µM (inactive).

`Cc1cc(C)nc(NS(=O)(=O)c2ccc(Nc3c4ccccc4nc4c(C(=O)NCCCN(CCO)CCO)cccc34)cc2)n1` was tested, and the GI50 [1] was 14.9 µM (inactive), the GI50 [2] was 16.9 µM (inactive) and the GI50 [3] was 14.2 µM (inactive). The GI50 [5] was 41.6 µM (inactive), the GI50 [6] was 14.8 µM (inactive) and the GI50 [7] was 8.22 µM (inactive). For the same compound, the GI50 [8] was 42 µM (inactive), the GI50 [9] was 10.9 µM (inactive) and the GI50 [10] was 3.35 µM (inactive). For the same compound, the GI50 [11] was 6.67 µM (inactive), the GI50 [12] was 11.6 µM (inactive) and the GI50 [13] was > 100 µM (inactive). The GI50 [14] was 10.6 µM (inactive), the GI50 [15] was 12.6 µM (inactive) and the GI50 [16] was 12.9 µM (inactive). For the same compound, the GI50 [17] was 54.3 µM (inactive), the GI50 [19] was 56.2 µM (inactive) and the GI50 [20] was 17.3 µM (inactive).

In the case of `Cc1cc(C)c2c(n1)S(=O)(=O)N(CCCN1CCN(c3cccc(Cl)c3)CC1)C(C(=O)c1ccc(Br)cc1)=C2O`, the GI50 [1] is reported as 22 µM (inactive), the GI50 [2] is reported as 24.5 µM (inactive) and the GI50 [3] is reported as 20.5 µM (inactive). The GI50 [4] was 19.1 µM (inactive), the GI50 [5] was 26.4 µM (inactive) and the GI50 [6] was 15.4 µM (inactive). For the same compound, the GI50 [7] was 11.1 µM (inactive), the GI50 [8] was 7.1 µM (inactive) and the GI50 [9] was 20.5 µM (inactive). The GI50 [10] was 10.3 µM (inactive), the GI50 [11] was 29.6 µM (inactive) and the GI50 [12] was 42.3 µM (inactive). The GI50 [13] was 15.3 µM (inactive), the GI50 [14] was 27.8 µM (inactive) and the GI50 [15] was 24.7 µM (inactive). For the same compound, the GI50 [16] was 25.4 µM (inactive), the GI50 [17] was 34.9 µM (inactive) and the GI50 [19] was 6.9 µM (inactive). For the same compound, the GI50 [20] was 23.8 µM (inactive).

For `O=c1c(NCc2ccccc2)c(C2(c3ccccc3F)SCCCS2)c1=O`, the GI50 [1] was > 100 µM (inactive), the GI50 [2] was > 100 µM (inactive) and the GI50 [3] was > 100 µM (inactive). The GI50 [4] was > 100 µM (inactive), the GI50 [5] was > 100 µM (inactive) and the GI50 [6] was > 100 µM (inactive). The GI50 [7] was > 100 µM (inactive), the GI50 [8] was > 100 µM (inactive) and the GI50 [9] was 23.7 µM (inactive). For the same compound, the GI50 [10] was > 100 µM (inactive), the GI50 [11] was > 100 µM (inactive) and the GI50 [12] was > 100 µM (inactive). For the same compound, the GI50 [13] was > 100 µM (inactive), the GI50 [15] was 46.1 µM (inactive) and the GI50 [16] was > 100 µM (inactive). For the same compound, the GI50 [17] was 82.8 µM (inactive), the GI50 [18] was > 100 µM (inactive) and the GI50 [19] was > 100 µM (inactive). The GI50 [20] was > 100 µM (inactive).

`C=C(C)C(=O)O[C@@H]1C[C@@]2(C)O[C@@H]2C[C@H](O)/C(C)=C/[C@H]2OC(=O)C(=C)[C@@H]21` was tested, and the GI50 [1] was > 100 µM (inactive), the GI50 [2] was > 100 µM (inactive) and the GI50 [3] was 49.1 µM (inactive). For the same compound, the GI50 [4] was 33.7 µM (inactive), the GI50 [5] was > 100 µM (inactive) and the GI50 [6] was > 100 µM (inactive). For the same compound, the GI50 [7] was 36.6 µM (inactive), the GI50 [9] was 12.6 µM (inactive) and the GI50 [10] was > 100 µM (inactive). The GI50 [11] was > 100 µM (inactive), the GI50 [12] was 63.1 µM (inactive) and the GI50 [13] was > 100 µM (inactive). The GI50 [14] was 29 µM (inactive), the GI50 [15] was > 100 µM (inactive) and the GI50 [16] was 61.5 µM (inactive). For the same compound, the GI50 [17] was > 100 µM (inactive), the GI50 [18] was > 100 µM (inactive) and the GI50 [19] was 28.6 µM (inactive). The GI50 [20] was 40.6 µM (inactive).

In the case of `ClC(Cl)(Cl)C1CCOC1n1nc2ccccc2n1` (stereo unspecified), the GI50 [1] is reported as > 100 µM (inactive), the GI50 [2] is reported as > 100 µM (inactive) and the GI50 [3] is reported as > 100 µM (inactive). The GI50 [4] was > 100 µM (inactive), the GI50 [5] was > 100 µM (inactive) and the GI50 [6] was > 100 µM (inactive). The GI50 [7] was > 100 µM (inactive), the GI50 [9] was > 100 µM (inactive) and the GI50 [10] was 28.2 µM (inactive). The GI50 [11] was > 100 µM (inactive), the GI50 [12] was > 100 µM (inactive) and the GI50 [13] was > 100 µM (inactive). For the same compound, the GI50 [14] was > 100 µM (inactive), the GI50 [16] was > 100 µM (inactive) and the GI50 [17] was > 100 µM (inactive). The GI50 [18] was > 100 µM (inactive), the GI50 [19] was > 100 µM (inactive) and the GI50 [20] was > 100 µM (inactive).

In the case of `NC(=O)NC(=O)c1cccc(NC(=O)CBr)c1`, the GI50 [1] is reported as < 0.0182 µM (active), the GI50 [2] is reported as < 0.0158 µM (active) and the GI50 [3] is reported as 0.0286 µM (active). The GI50 [4] was < 0.01 µM (active), the GI50 [5] was < 0.022 µM (active) and the GI50 [6] was < 0.0119 µM (active). For the same compound, the GI50 [7] was < 0.0206 µM (active), the GI50 [8] was 0.209 µM (active) and the GI50 [9] was < 0.01 µM (active). The GI50 [11] was < 0.0206 µM (active), the GI50 [12] was < 0.02 µM (active) and the GI50 [13] was < 0.0311 µM (active). For the same compound, the GI50 [14] was < 0.01 µM (active), the GI50 [15] was 0.0216 µM (active) and the GI50 [16] was < 0.0168 µM (active). The GI50 [17] was 0.102 µM (active), the GI50 [18] was < 0.0188 µM (active) and the GI50 [19] was < 0.01 µM (active). The GI50 [20] was < 0.0172 µM (active).
